Measured values reported in publication PMC6335420, “The cell cycle regulator GpsB functions as cytosolic adaptor for multiple cell wall enzymes” (Nature Communications, 2019).
Where two headings read alike, the source gives them in different places. Residues, ends and D or L forms follow the SMILES beside them. *: point of attachment. Fluorescein(5-Mal) = O=C1OC2(c3ccc(O)cc3Oc3cc(O)ccc32)c2ccc(N3C(=O)CC(*)C3=O)cc21

Columns and labels:
BsGpsB1-68 [1] = biological target: T1, BsGpsB1-68 (Bacillus subtilis, UniProt P0CI74); type: binding; details: FP
T1 construct: His6 (N, cleaved yes); made in house; host or cells: E. coli BL21(DE3)
T1 sequence (P0CI74 1-68): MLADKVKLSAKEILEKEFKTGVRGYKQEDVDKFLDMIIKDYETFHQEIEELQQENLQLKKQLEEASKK
Excerpt: 75 the BsGpsB5-64:BsPBP11-17 complex.

BsGpsB1-68 [2] = biological target: T1, BsGpsB1-68; details: FP, compared with residue-16-labelled peptide; ref 3 (supplement); cited from earlier work
BsYrrS = assay: BACTH interaction with BsYrrS; type: cell-based, Bacillus subtilis; details: E. coli BTH101, nutrient agar, 30 °C
[3] = Peptidoglycan pulldown assay; type: binding, Bacillus subtilis; details: 25 µg protein + 66 µg PG in 100 µL PBS, room temperature 30 min, SDS-PAGE
Description: PG pulldown assays were carried out in PBS buffer. B. subtilis PG (SigmaAldrich) was prepared as a 10 mg^−1 mL^−1 stock solution in PBS containing 0.02% sodium azide. 25 µg of protein were added to a 100 µL sample containing 66 µg of PG and the mixture incubated with gentle agitation at room temperature for 30 min. The mixture was centrifuged at 16,000 × g for 7 min, the supernatant removed and the pellet resuspended in 1 mL of ice-cold PBS and immediately centrifuged for 2 min at 16,000 × g. The pellet was resuspended in 1 mL of the appropriate buffer and centrifuged for 2 min at 16,000 × g. Finally the pellet was boiled for 3 min in 60 μL SDS-PAGE loading buffer before analysis by SDS-PAGE; the SDS-PAGE loading buffer lacked reducing agents for YpbE130-240^Ser132Cys samples.

Molecule: CSCC[C@H](NC(=O)[C@H](CO)NC(=O)CN)C(=O)N[C@@H](C)C(=O)N[C@@H](CC(=O)O)C(=O)N[C@@H](CCC(N)=O)C(=O)N[C@@H](Cc1ccccc1)C(=O)N[C@@H](CC(N)=O)C(=O)N[C@@H](CO)C(=O)N[C@@H](CCCNC(=N)N)C(=O)N[C@@H](CCC(=O)O)C(=O)N[C@@H](C)C(=O)N[C@@H](CCCNC(=N)N)C(=O)N[C@@H](CCCNC(=N)N)C(=O)N[C@@H](CCCCN)C(=O)N[C@@H](C)C(=O)N[C@@H](CC(N)=O)C(=O)N[C@@H](CO)C(=O)N[C@@H](CCCCN)C(=O)N[C@@H](CO)C(=O)N[C@@H](CO)C(=O)N1CCC[C@H]1C(=O)N[C@@H](CO)C(=O)N1CCC[C@H]1C(=O)N[C@@H](CCCCN)C(=O)N[C@@H](CCCCN)C(=O)NCC(=O)N[C@@H](CCCCN)C(=O)N[C@@H](CCCCN)C(=O)N[C@@H](CCCNC(=N)N)C(=O)N[C@@H](CCCCN)C(=O)N[C@@H](CCCCN)C(=O)N[C@@H](CSC1CC(=O)N(c2ccc3c(c2)C(=O)OC32c3ccc(O)cc3Oc3cc(O)ccc32)C1=O)C(=O)NCC(=O)O (some centres unmarked) [Fluorescein-BsPBP11-32] (H-GSMADQFNSREARRKANSKSSPSPKKGKKRKKC(Fluorescein(5-Mal))G-OH; N-terminus and C-terminus assumed)
- binding to BsGpsB1-68 (in words) (BsGpsB1-68 [1]; listed as BsPBP1_1-32 peptide labelled with fluorescein at position 31): the measured affinity was the same as if the fluorophore was at position 16
- binding to BsGpsB1-68 (in words) (BsGpsB1-68 [1]; listed as peptide labelled at the C-terminus with fluorescein): same affinity as a peptide labelled
- affinity of residue-31-labelled peptide (in words) (BsGpsB1-68 [2]): same affinity

B1: BsPBP1: B. subtilis class A PBP1 (protein)
chain: MSDQFNSREARRKANSKSSPSPKKGKKRKKGGLFKKTLFTLLILFVLGVVGGAVTFAVMVSDAPSLDESKLKTPYSSTIYDKNGKEIAEVGAEKRTYVSIDEIPDVVKEAFIATEDARFYEHHGIDPVRIGGALVANFKDGFGAEGGSTITQQVVKNSLLSHQKTLKRKVQEVWLSIQLERNYSKDEILEMYLNRIYFSPRAYGIGKAAEEFFGVTDLSKLTVEQAATLAGMPQSPTAYNPVKNPDKAEKRRNIVLSLMKKQGFISDSQYNKAKKVAVKDEGVVSQKEYEKASTNKYSAFVEEVMKEIDEKSDVDPSADGLKIYTTLDTKAQDKLDELMDGDTVGFTEGMQGGVTLLDTKNGEVRAIGAGRNQPVGGFNYATQTKAQPGSTIKPILDYGPVIENKKWSTYEQIDDSAYTYSNGKPIRDWDRKYLGPISMRYALAQSRNIPALKAFQAVGKDTAVDFANGLGLGLTKDNVTEAYSIGGFGGNDGVSPLTMAGAYSAFGNNGTYNEPHFVKSIEFNDGTKLDLTPKSKSAMSDYTAFMITDMLKTAVKTGTGQLAQVPGVEVAGKTGTTNFDDNEVKRYNIASGGARDSWFVGYTPQYTAAVWTGMGENEAGKKSLSAEEQKVAKRIFAQLIADVDDGSGSFEKPDSVVEATVEKGSNPAKLAGPNTPSDKKLTEYFVKGTAPSTVSKTYEKEEKEETAKLSGLNVKYDKDNQSLTLSWNYDGDATFAVKQSVDGGSYSEIQNSSAKEAVISGVQPGSVYKFEVTAVSDDGKSTASTSYEVPKAEDDEDKKDQQQTDDEKQDDEKTQDDTQTDDSQKDDGQTDQDQTDDSTNDQDKKQDNTNTNPSDNNNQDQSNDNDNDNSNNQDTSDGDSNSGKNDSTGSDTNKNKTDTSNKTQTNSSSIEKTN
modifications: left off: His6, end not stated, cleaved
notes: B. subtilis class A PBP1
- BACTH interaction with BsYrrS (BsYrrS): interacted

B2: BsYpbE130-240^Ser132Cys: disulphide cross-linked dimeric form of BsYpbE130-240 (protein, UniProt P50731 130-240, looked up, variant S132C)
chain: EDCKPKEQTAADKKQTAVAEKEDSPNKEEATAAAASSSQSTVQQQEQPAEPVQNVPNRVVKHTVQKKETLYRISMKYYKSRTGEEKIRAYNHLNGNDVYTGQVLDIPLMDE
modifications: disulphide-linked dimer
- binding to peptidoglycan [3]: enhanced considerably relative to the monomeric, cysteine-free version
